Key:
MEC-1 cell line = assay: 96-hour CTG cytotoxicity assay on MEC-1; type: cell-based, human; settings: 96-hour CTG assay
Experimental: (§1) FIG. 16. Results of cytotoxicity studies on (A) MEC-1-, (B) MEC-2-, (C) Raji-, (D) Nalm-6-, and (E) Ramos cell lines, respectively, using the obinutuzumab amatoxin conjugates Obi-30.1699 and Obi-30.2115 in a 96-hour CTG assay in comparison to unconjugated α-amanitin.
(§2) Results are depicted in FIG. 14.
(§3) Results are depicted in FIG. 15.
(§4) Cytotoxic activities of the obinutuzumab amatoxin conjugates Obi-30.1699 and Obi-30.2115 were assessed in vitro on MEC-1, MEC-2, Raji, Nalm-6, and Ramos cell lines, respectively, using a 96-hour CTG assay, in comparison to unconjugated α-amanitin. Results are depicted in FIG. 16.

MEC-2 cell line = assay: 96-hour CTG cytotoxicity assay on MEC-2; type: cell-based, human; settings: 96-hour CTG assay
Experimental: as §1, §2, §3, §4

Raji cell line = assay: 96-hour CTG cytotoxicity assay on Raji; type: cell-based, human; settings: 96-hour CTG assay
Experimental: as §1, §3, §4

[1] = test system: Nalm-6 cells (CD20-negative); assay: 96-hour CTG cytotoxicity assay on Nalm-6; type: cell-based; settings: 96-hour CTG assay
Experimental: as §1, §3, §4

Ramos cell line = assay: 96-hour CTG cytotoxicity assay on Ramos; type: cell-based; settings: 96-hour CTG assay
Experimental: as §1, §3, §4

RNA-polymerase II = RNA-polymerase II (Homo sapiens, UniProt P24928); settings: read-out: KD of complex with RNA-polymerase II; cited from earlier work

CC[C@H](C)[C@@H]1NC(=O)CNC(=O)[C@@H]2Cc3c([nH]c4cc(O)ccc34)[S+]([O-])C[C@@H](NC(=O)CNC1=O)C(=O)N[C@@H](CC(N)=O)C(=O)N1C[C@H](O)C[C@H]1C(=O)N[C@@H]([C@@H](C)[C@@H](O)CO)C(=O)N2 (stereo in doubt) [α-amanitin, reference compound]
Cytotoxic effect on MEC-1 (in words) (MEC-1 cell line): cytotoxic effects on all cell lines only in the millimolar range
Cytotoxic effect on MEC-2 (in words) (MEC-2 cell line): cytotoxic effects on all cell lines only in the millimolar range
Cytotoxic effect on Raji (in words) (Raji cell line): cytotoxic effects on all cell lines only in the millimolar range
Cytotoxic effect on Nalm-6 (in words) [1]: cytotoxic effects on all cell lines only in the millimolar range
Cytotoxic effect on Ramos (in words) (Ramos cell line): cytotoxic effects on all cell lines only in the millimolar range
Kd (RNA-polymerase II): 3 nM
